In test [1] the test system is chronic GERD, ulcer of 6 cm in the esophagus. Briefly: Case of a patient with chronic GERD and a 6 cm esophageal ulcer. The class given is in vivo, human. Conditions: before the formulation; regurgitation and heartburn.
In test [2] the test system is gastric acid secretion. The settings on record: cited from earlier work.
For test [3], the system named is spontaneous gastric ulcers. The settings on record: 4-week administration in the diet, young pigs; cited from earlier work.
Test [4] relates to nitric oxide biosynthesis. The settings on record: cited from earlier work.

For `O=C([O-])O.[Na+]` [baking soda], the “relief of symptoms with earlier treatments” value in test [1] was “Neither treatment produced even partial relief”.

Turning to `COc1ccc2[nH]cc(CCNC(C)=O)c2c1` [melatonin, N-Acetyl-5-methoxytryptamine], in test [2], the “action on gastric acid secretion” value is listed as “inhibitory action”. For the same compound, the “incidence of spontaneous gastric ulcers” value in test [3] was “significantly reduced”. In test [4], the “effect on nitric oxide biosynthesis” value is listed as “inhibits”.

Source of the values: US20130090305A1, “METHOD USING A DIETARY SUPPLEMENT FOR HEALING OR REGRESSING SYMPTOMS OF GASTROESOPHAGEAL REFLUX DISEASE, GASTRITIS AND ULCERS” (priority 2006, published 2013).
